In US20240252658A1, “BIFUNCTIONAL PROTAC-TYPE COMPOUNDS TARGETING PXR, METHOD FOR PREPARING SAME AND THERAPEUTIC USE THEREOF” (Centre National de la Recherche Scientifique, priority 2021, published 2024):

Experiments:
PXR [1] = assay: CYP3A4 mRNA expression by RT-qPCR in LS174T cells; type: cell-based; settings: 5 μM, 48 h, with rifampicin 5 μM
Protocol: . After lysis of the cells and purification of the total RNAs (Qiagen RNAeasy), the complementary DNAs were prepared (SuperScript II in the presence of random primers of 6 nucleotides, Invitrogen). The expression of CYP3A4 mRNA and RPLO and actin housekeeping genes was measured by RT-qPCR on an LC480 apparatus (Roche) in the presence of SyberGreen (Millipore). The relative expression levels were calculated according to the RQ=Relative quantification=2-ΔΔCt method, the untreated cells serving as a calibrator set to 1. […]

[2] = target: T1, PXR ligand binding domain (LBD) (Homo sapiens, UniProt O75469); assay: LanthaScreen TR-FRET PXR competitive binding assay; settings: displacement of fluorescent reference ligand, 1:30 hours at room temperature, read-out: affinity for PXR
T1 construct: purchased Invitrogen
T1 sequence (O75469 146-433 limits assumed): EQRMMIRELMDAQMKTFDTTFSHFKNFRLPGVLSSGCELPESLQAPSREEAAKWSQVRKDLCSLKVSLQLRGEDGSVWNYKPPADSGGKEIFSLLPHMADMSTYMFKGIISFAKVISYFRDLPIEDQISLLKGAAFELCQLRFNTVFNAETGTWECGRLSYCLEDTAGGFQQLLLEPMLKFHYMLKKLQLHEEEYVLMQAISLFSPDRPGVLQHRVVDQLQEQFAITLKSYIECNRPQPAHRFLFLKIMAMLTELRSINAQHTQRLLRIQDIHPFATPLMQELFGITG
Protocol: The molecules were incubated for 1:30 hours at room temperature with the PXR LBD in the presence of a fluorescent reference ligand. The displacement of the fluorescent ligand caused by the prePROTAC or the PXR SR12813 ligand was measured by reading emissions at 520 nm and 495 nm after excitation at 337 nm on a PHERA-Star apparatus (BMG LABTECH).

CRC1 = assay: Cell viability, Sulforhodamine B, CRC1; type: cell-based; settings: CRC1 protoculture, increasing concentrations, 72 h
Protocol: (§1) The effect of PROTACs on cell viability has been tested on various lines CRC1, HT29 and LS174T. The cells were incubated in the presence of increasing concentrations of molecules for 72 h before being fixed and marked by Sulforhodamine B (Sigma). After washing and lysis of the cells, the incorporated colorant released by the cells is directly proportional to the cell biomass. It is measured at […] by a 96-well plate spectrophotometer (Tecan). The signal obtained for the untreated cells is set at 100%.

PXR protein [3] = target: T2, PXR protein (Homo sapiens, UniProt O75469); assay: Importance of the proteasome pathway for PXR degradation, western blotting in LS174T cells; type: cell-based; design: endogenous in cells; host or cells: LS174T; settings: 24 hours
T2 sequence (O75469 1-434): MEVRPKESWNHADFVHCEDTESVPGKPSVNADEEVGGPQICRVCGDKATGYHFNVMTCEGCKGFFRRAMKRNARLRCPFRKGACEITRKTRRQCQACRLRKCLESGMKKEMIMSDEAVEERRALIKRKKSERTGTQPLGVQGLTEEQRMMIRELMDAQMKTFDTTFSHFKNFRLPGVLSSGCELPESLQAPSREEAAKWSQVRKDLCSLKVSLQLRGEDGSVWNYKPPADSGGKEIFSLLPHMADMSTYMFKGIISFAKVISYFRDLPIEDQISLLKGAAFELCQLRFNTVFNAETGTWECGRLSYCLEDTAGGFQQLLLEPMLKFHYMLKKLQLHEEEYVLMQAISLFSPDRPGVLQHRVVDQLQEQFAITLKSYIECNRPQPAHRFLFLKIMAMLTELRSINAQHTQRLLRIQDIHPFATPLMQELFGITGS
Protocol: The involvement of the proteasome pathway in the effects of PROTACs on the expression level of the PXR protein was studied by western blotting. The LS174T cells were treated for 24 hours with JMV7048 in the presence or absence of the […] (MLN4924) or the proteasome inhibitor (Bortezomib).

HT29 cells [4] = assay: Cell viability, Sulforhodamine B, HT29; type: cell-based; settings: increasing concentrations, 72 h
Protocol: as §1

LS174T = assay: Cell viability, Sulforhodamine B, LS174T; type: cell-based; settings: LS174T line, increasing concentrations, 72 h
Protocol: as §1

CRC1 cells = assay: Aldefluor marking of cancer stem cells, CRC1; type: cell-based; settings: 5 μM, 48 h, compared to untreated cells
Protocol: (§2) The effects of the PROTACs on the survival and self-renewal of colic cancer stem cells were studied in vitro on the HT29 line or cancer cells isolated from patients (CRC1). The cells were treated with or without 5 μM PROTACs for 48 h before being analyzed: Aldefluor marking, enzymatic activity preferentially present in cancer stem cells (FIG. 10A); formation of tumorspheres under aseric and non-adherent conditions (FIG. 10B), and finally resistance to chemotherapy (FIGS. […] and 10D).
(§3) The tumorspheres with a diameter of more than 50 μM were counted 10 days after treatment and culturing of 200 cells per well (previously treated with poly2Hema in order to prevent any cell adhesion) in 100 μL of depleted BCS medium. These culture conditions allow only the survival of cancer stem cells. FIGS. 10C and 10D show the effects of the PROTACs JMV7048 and JMV7965 on survival (10C) and the ability to form tumorspheres (10D) of the HT29 cells maintained in the presence of different concentrations of 5-FU and SN38 (Folfiri 1X=50 μg 5-FU+500 nM SN38) and cultured in 100 μL of depleted BCS medium in dishes pretreated with poly2Hema in order to prevent any cell adhesion. The tumorspheres with a diameter of more than 50 μM were counted 10 days after seeding 200 cells/well.

PXR protein [5] = target: T2, PXR protein; assay: PXR degradation in LS174T cells by in vitro western blotting; type: cell-based; design: endogenous in cells; host or cells: LS174T; settings: for expression level of the PXR protein: 5 μM, 24 h of treatment
Protocol: The effect of the PROTACs on the expression level of the PXR protein was studied by western blotting. The LS174T cells were […] in the absence or presence of 50 nM of an siRNA targeting PXR (siPXR: NR112 Silencer, Thermofischer) or treated by the PROTACs. After lysis of the cells (RIPA+antiproteases), the proteins were purified and assayed before being deposited ([…]) on 10% SDS-PAGE gel. […] The intensities of the signals were measured by a camera (BioRad MP Touch). […] FIGS. 6D and 6E illustrate the effect of JMV7048 on the expression level of PXR based on the treatment time (maximum effect reached after 3 h of treatment) and the concentration used (decrease dependent on the dose, with a maximum effect observed from 500 nM).

PXR [6] = assay: CYP3A4 protein expression by western blotting in LS174T cells; type: cell-based; design: dose or concentration left out as unconfirmed; settings: 48 h
Protocol: The LS174T cells were treated for 48 h with […] JMV7048 in the presence or absence of rifampicin (PXR ligand) at […] final. After lysis of the cells (RIPA+antiproteases), the proteins were purified and assayed before being deposited (90 μg) on 10% SDS-PAGE gel. […] The intensities of the signals were measured by a camera (BioRad MP Touch).

HT29 cells [7] = assay: Survival and chemoresistance of cancer stem cells in colon cancer cell lines; type: cell-based; settings: 5 μM for 2 days, 5-FU and SN38 (Folfiri)
Protocol: as §2, §3

HT29 cells [8] = assay: Tumorsphere formation (Sphere Forming Cells), HT29; type: cell-based; settings: 5 μM, 48 h, spheres counted after 10 days
Protocol: as §2, §3

Structure (SMILES) | effect on expression of CYP3A4 mRNA induced by rifampicin (PXR [1]) | toxicity (cell viability) (LS174T) | percentage of ALDH-positive cells (CRC1 cells) | expression level of the PXR protein (PXR protein [5]) | other results
Cc1cc(C)c(S(=O)(=O)Nc2ccc3c(c2)nc(CCCCCCCN)n3Cc2ccccc2)c(C)c1 [JMV6944, N-[2-(7-aminoheptyl)-1-benzyl-1H-1,3-benzodiazol-5-yl]-2,4,6-trimethylbenzene-1-sulfonamide] | additive effect on the expression of CYP3A4 mRNA | – | – | – | Kd [2]: 18.4 nM
Cc1cc(C)c(S(=O)(=O)Nc2ccc3c(c2)nc(CCCCCCCNC(=O)CCCCCN2CCN(c4ccc5c(c4)C(=O)N(C4CCC(=O)NC4=O)C5=O)CC2)n3Cc2ccccc2)c(C)c1 (centres unmarked) [JMV7048] | significantly reduce the induction of CYP3A4 | absence of toxicity | significantly reduce the percentage of ALDH-positive cells | significantly reduce the expression level of the PXR protein | cell viability (CRC1): does not affect the viability; decrease in PXR expression level with MLN4924 or Bortezomib (PXR protein [3]; with or without MLN4924 or Bortezomib): reverted by the CRBN ubiquitin ligase inhibitors (MLN4924, FIG. 8A) or by an inhibitor of the 26S proteasome; cell viability (HT29 cells [4]): does not affect the viability; treatment time at which maximum effect on PXR expression level is reached (PXR protein [5]): 3 h; concentration from which maximum effect on PXR expression level is observed (PXR protein [5]; decrease dependent on the dose): ≥ 500 nM; effect on induction of the CYP3A4 enzyme mediated by rifampicin (PXR [6]): reduce the induction of the CYP3A4 enzyme; survival and chemoresistance of stem cells (HT29 cells [7]): significantly reduces the survival and chemoresistance of stem cells; number of cells capable of surviving anoikis and forming tumorspheres (Sphere Forming Cells) (HT29 cells [8]): significantly reduce the number of HT29 cells
Cc1cc(C)c(S(=O)(=O)Nc2ccc3c(c2)nc(CCCCCCCNC(=O)CCCCCN2CCN(C4CCC5C(=O)N(C6CCC(=O)N(C)C6=O)C(=O)C5C4)CC2)n3Cc2ccccc2)c(C)c1 (centres unmarked) [JMV7159] | additive effect on the expression of CYP3A4 mRNA | – | – | – | expression level of the PXR protein (PXR protein [3]): does not cause a decrease in the expression level of PXR
Cc1cc(C)c(S(=O)(=O)Nc2ccc3c(c2)nc(CCCCCCCNC(=O)CCCCCCN2CCN(c4ccc5c(c4)C(=O)N(C4CCC(=O)NC4=O)C5=O)CC2)n3Cc2ccccc2)c(C)c1 (centres unmarked) [JMV7505] | – | absence of toxicity | significantly reduce the percentage of ALDH-positive cells | significantly reduce the expression level of the PXR protein | –
Cc1cc(C)c(S(=O)(=O)Nc2ccc3c(c2)nc(CCCCCCCNC(=O)CCCCCCCN2CCN(c4ccc5c(c4)C(=O)N(C4CCC(=O)NC4=O)C5=O)CC2)n3Cc2ccccc2)c(C)c1 (centres unmarked) [JMV7506] | – | – | significantly reduce the percentage of ALDH-positive cells | significantly reduce the expression level of the PXR protein | –
Cc1cc(C)c(S(=O)(=O)Nc2ccc3c(c2)nc(CCCCCCCNC(=O)CCCCCCN2CCN(c4ccc(C(=O)NC5CCC(=O)NC5=O)cc4)CC2)n3Cc2ccccc2)c(C)c1 (centres unmarked) [JMV7605] | – | absence of toxicity | – | significantly reduce the expression level of the PXR protein | –
Cc1cc(C)c(S(=O)(=O)Nc2ccc3c(c2)nc(CCCCCCCNC(=O)CN2CCC(CN4CCN(c5ccc6c(c5)C(=O)N(C5CCC(=O)NC5=O)C6=O)CC4)CC2)n3Cc2ccccc2)c(C)c1 (centres unmarked) [JMV7965] | significantly reduce the induction of CYP3A4 | – | significantly reduce the percentage of ALDH-positive cells | significantly reduce the expression level of the PXR protein | effect on induction of the CYP3A4 enzyme mediated by rifampicin (PXR [6]): reduce the induction of the CYP3A4 enzyme; survival and chemoresistance of stem cells (HT29 cells [7]): significantly reduces the survival and chemoresistance of stem cells; number of cells capable of surviving anoikis and forming tumorspheres (Sphere Forming Cells) (HT29 cells [8]): significantly reduce the number of HT29 cells
